Measured values as given in patent US20260191925A2, “TISSUE OCCLUDING AGENT COMPRISING AN IEIKIEIKIEIKI PEPTIDE” (3-D Matrix, Ltd., priority 2008, published 2026).
“Also recorded” adds a separate entry of the source. No end group written: not given here.

What was measured:
[1] = Self-assembly of aqueous peptide solution with rabbit bile (Example 10); type: physicochemical; conditions: covered with rabbit bile, approximately 30 seconds
Protocol: (§1) The rabbits were subcutaneously administered (3 mg/kg) Celactar 2% injection (2.0 g content as xylazine in 100 mL, product of Bayer Ltd.), and then ketamine (50 mg content as ketamine in 1 mL, product of Fuji Chemical Industries, Ltd.) was intravenously administered (10 mg/kg) for anesthesia.
The rabbits were laparotomized by median section, and bile was sampled from the gallbladder using a 23 G injection needle (Terumo Corp.).
Droplets of each aqueous peptide solution before self-assembly were prepared (diameter: approximately 5-8 mm), and the sampled bile was gently poured thereover so as to cover the aqueous peptide solution.

rabbit portal vein stem [2] = assay: Rabbit portal vein stem injection needle perforation model (Example 1); type: in vivo
Protocol: as §1
(§2) The rabbits were laparotomized by median section. Approximately 10 cm of the abdominal aorta and portal vein stem was exposed, each blood vessel was ablated from the surrounding tissue, and the abdominal aorta was punctured with a 23 G injection needle (Terumo Corp.) while the portal vein stem was punctured with a 26 G injection needle (Terumo Corp.).
(§3) Upon confirming hemorrhage, blood flow at the peripheral end and central end was clamped with a hemostatic clamp, and after removing the hemorrhaged blood with physiological saline and gauze, it was immediately treated with the aqueous peptide solution.
(§4) After 1-2 minutes of treatment, blood flow was released and the presence of hemorrhage from the puncture site was visually examined.

rabbit abdominal aorta [3] = assay: Rabbit abdominal aorta injection needle perforation model (Example 1); type: in vivo; conditions: for hemostatic effect (hemorrhage visually examined): after release of clamp
Protocol: as §1, §2, §3, §4

resected liver surface = assay: Rabbit partial liver resection model (Example 2); type: in vivo; conditions: for hemorrhage from cut surface after rinsing with physiological saline: FIG. 2; for rabbits showing complete hemostasis: partial liver resection
Protocol: as §1
The rabbits were laparotomized by median section, and the hepatic left or right lobe was sharply excised to a size of approximately 5 cm width×3 cm length from the edge using a scalpel, to prepare a liver section.
Blood flow was released 1-2 minutes after treatment, the aqueous peptide solution that was gelled was removed by physiological saline, and the presence of any hemorrhage from the resected liver surface s was visually confirmed.
The resected liver surface in which a hemostatic effect was seen were fixed with 20% formalin and histopathologically evaluated by HE staining.

rabbit bile duct wall = assay: Rabbit bile duct injection needle perforation model (Example 6); type: in vivo; conditions: 26 G needle
Protocol: as §1
The rabbits were laparotomized by median section. Approximately 10 cm of the bile duct was exposed, and after ablation from the surrounding tissue, the bile duct was punctured with a 26 G injection needle.
After confirming discharge of bile and continuous flow of bile, the bile flow was blocked with a hemostatic clamp.
The leaked bile was removed with physiological saline and gauze, and then treated with 3% aqueous peptide solution.
After 2 minutes of treatment, bile flow blockage was released and the presence of bile flow from the puncture site was visually examined.

rabbit abdominal aorta [4] = assay: Rabbit abdominal aorta injection needle perforation model, sugar-containing solutions (Example 4); type: in vivo
Protocol: as §1
as §2, with “with a 26 G, 25 G or 23 G” for “with a 23 G”
(§5) After 1-2 minutes of treatment, blood flow was released and the presence of hemorrhage was visually examined.

[5] = tested on: abdominal aorta of rabbits with reduced blood clotting function; assay: Abdominal aorta injection needle perforation model of rabbits with suppressed blood clotting function (heparin) (Example 3); type: in vivo, rabbit; conditions: for Observations: heparin 1,000 units
Protocol: as §1
The rabbits were laparotomized by median section. Approximately 10 cm of the abdominal aorta was exposed, the blood vessel was ablated from the surrounding tissue, and the vessel was punctured with a 26 G, 25 G or 23 G injection needle (Terumo Corp.).
Upon confirming hemorrhage, blood flow at the peripheral end and center end was clamped with a hemostatic clamp, and after removing the hemorrhaged blood with physiological saline and gauze, it was immediately treated with the aqueous peptide solution.
as §5

[6] = tested on: canine intravesical tumor / vesical mucosa; assay: Canine intravesical tumorectomy, submucosal injection (Example 7); type: in vivo, dog
Protocol: Canine intravesical tumorectomy was carried out under general anesthesia management, by the following procedure.
After hypogastric incision with an electrocautery scalpel (Erbe, Inc.), the electrocautery scalpel was used for incision of the bladder to expose the intravesical tumor (pedunculated tumor with a base site diameter of approximately 0.5 cm that is elevated from the vesical mucosa).
3% Aqueous peptide solution was submucosally injected around the tumor base in 4 injections of 0.5 mL each, and elevation of the tumor on the mucosa was confirmed.
After elevating the tumor, the tumor was excised with an electronic scalpel.
The time from aqueous peptide solution injection to complete tumor excision was approximately 2 minutes.

rat portal vein = assay: Rat portal vein embolization (Example 11); type: in vivo; conditions: 4 mL injected through portal vein stem, liver extracted after 5 minutes, HE staining
Protocol: The rats were subjected to inhalation anesthesia with diethyl ether (Kishida Chemical Co., Ltd.).
The rats were laparotomized by median section and the portal veins were exposed.
A 4 mL portion of aqueous peptide solution was injected through the portal vein stem with a 26 G injection needle (Terumo Corp.), and hemorrhage from the puncture site was immediately arrested with aqueous peptide solution.
The livers were extracted 5 minutes after injection and immediately fixed with 10% formalin (Wako Pure Chemical Industries, Ltd.).
The tissue was stained with haematoxylin eosin (HE) 1 week after fixing.

rabbit hepatic incision = assay: Rabbit hepatic transection model (Example 9); type: in vivo; conditions: 1% solution, 1 minute after treatment, after rinsing with physiological saline
Protocol: as §1
The rabbits were laparotomized by median section and the hepatic left lobes were exposed and sharply transected with a scalpel to about 1 cm to induce hemorrhage.
After confirming exudative hemorrhage from the incision, the blood was removed as much as possible with gauze and the hepatic incision was treated with aqueous peptide solution.
The gelled aqueous peptide solution was removed 1 minute after treatment using physiological saline, and the presence of any hemorrhage from the hepatic incision was visually confirmed.

[7] = tested on: rabbit gastric mucosa incision; assay: Rabbit gastric mucosa incision model (Example 8); type: in vivo; conditions: 1 minute after treatment, after rinsing with physiological saline
Protocol: as §1
The rabbits were laparotomized by median section and the stomachs were incised, after which the gastric mucosa was exposed and sharply incised with a scalpel to about 1 cm to induce hemorrhage.
After confirming blood oozing from the incision, the blood was removed as much as possible with gauze and the gastric mucosa incision was treated with aqueous peptide solution.
The gelled aqueous peptide solution was removed 1 minute after treatment using physiological saline, and the presence of any hemorrhage from the gastric mucosa incision was visually confirmed.

rabbit portal vein stem [8] = assay: Rabbit portal vein stem injection needle perforation model, sugar-containing solutions (Example 4); type: in vivo
Protocol: as §1
as §2, with “with a 26 G, 25 G or 23 G” for “with a 23 G”
as §5

## Ac-(RADA)4-NH2 [1.5% PuraMatrix aqueous peptide solution]
[1]
  bile-induced self-assembly: self-assembly confirmed

## Ac-(RADA)4-NH2 [1% aqueous peptide solution] (Ac-RADARADARADARADA-NH2)
Rabbit portal vein stem [2]
  hemostatic effect (hemorrhage visually examined): persistent phleborrhagia
Rabbit abdominal aorta [3]
  hemostatic effect (hemorrhage visually examined): hemostasis was not complete; also recorded: resumed hemorrhage following declamp
Resected liver surface
  hemorrhage from cut surface after rinsing with physiological saline: no hemorrhage observed from cut surface
  rabbits showing complete hemostasis: two of two

## Ac-(RADA)4-NH2 [3% aqueous peptide solution] (Ac-RADARADARADARADA-NH2)
Rabbit portal vein stem [2]
  cases demonstrating complete hemostasis: two of two
Rabbit bile duct wall
  Observations: Aqueous peptide solution gelled
  bile duct wall occlusion effect (bile leakage): complete bile duct wall occlusion effect; also recorded: bile leakage of (b) not observed around bile duct
Rabbit abdominal aorta [4]; 23 G needle
  Observation: Complete
Rabbit abdominal aorta [4]; 25 G needle
  Observation: Complete
Rabbit abdominal aorta [4]; 26 G needle
  Observation: Complete
[5]; 23 G needle
  Observations: Complete hemostasis
[5]; 25 G needle
  Observations: Complete hemostasis
[5]; 26 G needle
  Observations: Complete hemostasis
[5]; heparin-treated rabbits, 26 G, 25 G and 23 G needle perforation
  hemostatic effect (hemorrhage visually examined): complete hemostasis; also recorded: perivascular hemorrhage of (b) not seen after declamp
Rabbit abdominal aorta [3]
  rabbits demonstrating complete hemostasis: two of two
  hemostatic effect (hemorrhage visually examined): completely hemorrhage-arrested blood vessel
[6]; excision by electrocautery
  hemorrhage at excision site after tumor excision: no hemorrhage at excision site after tumor excision
  hemorrhage at excision site during tumor excision: no hemorrhage at excision site during tumor excision
[6]; submucosal injection, 4 injections of 0.5 mL
  mucosal swelling (elevation) of excision site: swelling of affected area confirmed
Resected liver surface
  hemorrhage from cut surface after rinsing with physiological saline: hemorrhage observed from cut surface
  rabbits showing complete hemostasis: 1 of 4
Rat portal vein
  portal vein embolization: Embolization of portal vein confirmed

## Ac-(IEIK)3I-CONH2 [1% IEIK13 aqueous peptide solution]
[1]
  bile-induced self-assembly: self-assembly confirmed
Rabbit hepatic incision
  hemostatic effect (hemorrhage from hepatic incision): no hemorrhage observed from incision site
Rabbit hepatic incision; listed as IEIK13 aqueous peptide solution
  hemostatic effect (hemorrhage from hepatic incision): no hemorrhage was observed

## 1% IEIK9 aqueous peptide solution: 1% aqueous peptide solution, peptide sequence IEIK9 (SEQ ID NO: 4) (Ac-IEIKIEIKI)
[1]
  bile-induced self-assembly: virtually no self-assembly seen
Rabbit hepatic incision
  hemostatic effect (hemorrhage from hepatic incision): hemorrhage observed from incision site
Rabbit hepatic incision; listed as IEIK9 aqueous peptide solution
  hemostatic effect (hemorrhage from hepatic incision): no hemostatic effect

## Ac-(KLDL)3-CONH2 (Ac-KLDLKLDLKLDL-NH2) [1% KLD aqueous peptide solution]
[1]
  bile-induced self-assembly: self-assembly confirmed
Rabbit hepatic incision
  hemostatic effect (hemorrhage from hepatic incision): no hemorrhage observed from incision site
Rabbit hepatic incision; listed as KLD aqueous peptide solution
  hemostatic effect (hemorrhage from hepatic incision): no hemorrhage was observed

## Ac-(RADA)4-NH2 (Ac-RADARADARADARADA-NH2) [2% aqueous peptide solution]
[7]
  hemorrhage from gastric mucosa incision: no hemorrhage from incision site
Rabbit portal vein stem [8]; portal vein stem 26 G needle perforation
  hemostatic effect (compared between the solutions): equivalent
Rabbit portal vein stem [8]; portal vein stem, 26 G needle
  Observation: Complete
